Measured values taken from patent US6864086B2, “Nitric oxide-scavenging system for culturing oocytes, embryos, or other cells” (Board of Supervisors of Louisiana State University and …, priority 1998, dated 2005).
Marks after values point to notes of the source that are not given here.

System: inseminated bovine oocytes co-cultured with cumulus-granulosa cells
Experiment: Example 5: Hb (1 μg/ml) added to mBECM-C at different times of co-culture with CGs
Type: cell-based
Conditions: for No of embryos developed to the 2-cell / % of embryos developed to the 2-cell: examined 48 h; for No of embryos developed to the 8-cell / % of embryos developed to the 8-cell: examined 60 h; for No of embryos developed to the 16-cell / % of embryos developed to the 16-cell: examined 120 h; for No of embryos developed to the Morula / % of embryos developed to the Morula: examined 144 h; for No of embryos developed to the Blastocyst / % of embryos developed to the Blastocyst: examined 192 h
Procedure: mBECM containing 10 μM β-mercaptoethanol was used to culture embryos, as described in J. Lim et al., “Roles of growth factors in the development of bovine embryos fertilized in vitro and cultured singly in a defined medium,” Reprod. Fertil. Dev., 8, 1199-1205 (1996). To culture individual 8-cell embryos we used mBECM supplemented with 1 ng/ml platelet derived growth factor type AB (PDGF; Upstate Biotechnology Inc., Lake Placid, N.Y.), 1 ng/ml transforming growth factor-β (TGF; R & D System, Minneapolis, Minn.), 50 ng/ml arachidonic acid (AA; Cayman Chemical Co., Ann Arbor, Mich.), 100 μM glutathione (GSH; Sigma Co.) and 1 mg/ml polyvinyl alcohol (PVA) (mBECM-S). mBECM to which 10% (v/v) FBS was added (mBECM-C) was used for co-culturing inseminated zygotes with CGs and for producing 8-cell embryos. Osmolarity of the medium was maintained within the range of 265-290 mOsm.
The bovine cumulus-oocyte complexes (COCs) used were collected in Madison, Wis. (BOMED, Inc.), and were shipped in 2-ml of maturation medium in a battery powered incubator via overnight express mail service. Oocytes matured during transit and arrived within 24 h after exposure to maturation medium, pre-equilibrated at 39° C. in 5% CO2 in air. At 22-24 h after exposure to the medium, the COCs were inseminated in vitro as described in J. Lim et al., “Intracytoplasmic glutathione concentration and the role of β-mercaptoethanol in preimplantation development of bovine embryos,” Theriogenology, 46, 429-439 (1996). At 18 h post-insemination, COCs were cultured in groups (30-35 embryos) in a 4-well multidish (Nunc, Roskilde, Denmark) containing 0.8-ml of mBECM-C. Embryos were dislodged from CGs at 36-48 h post-insemination.
In Example 1, embryos (83-85 per group) collected 18 h post-insemination were cultured in mBECM-C, to which 0, 0.008, or 0.04 mM SNP was added at 18 or 60 h post-insemination. In Example 2, 8-cell embryos (80 per group) were produced in a co-culture system containing CGs and mBECM-C, and then beginning at 60 h post-insemination were cultured singly in a defined culture medium (mBECM-S), to which 0, 0.0016, 0.008, or 0.04 mM of SNP (S-0501, Sigma Co.) was added. In Example 3 embryos, either uncleaved (n=99) or developed to the 2-cell stage (90), were collected 48 h post-insemination; and cleaved embryos, either developed to the morula stage (69) or degenerate (63) were collected 144 h post-insemination. NO metabolites were then measured in the embryos. In Example 4, three groups of 95 zygotes each were co-cultured with CGs in mBECM-C, to which 0, 1, or 10 μg/ml Hb (bovine, mainly methemoglobin, H-2500, Sigma Co.) was added. […] In Example 6, inseminated oocytes (93 per group) were cultured in the presence or absence of CGs in mBECM-C to which either 0 or 1 μg/ml Hb was added. In Example 7, 8-cell embryos (100 per group), obtained after culture in mBECM-C supplemented with Hb (1 μg/ml), were cultured singly in mBECM-S, with or without Hb.
Oocytes or 8-cell embryos were randomly and equally allocated to each treatment group. In Examples 1, 2, and 4-7, oocytes or embryos that had developed to the 2-cell, 8-cell, >8-cell, 16-cell morula, and blastocyst stages were individually scored ‘1’ (developed) at 48, 60, 96, 120, 144 and 192 h post-insemination, respectively. […] Sums of the scores in each stage of development were evaluated by analysis of variance (ANOVA) using the general linear model (PROC-GLM) in the SAS program software. In Example 3, concentrations of NO metabolites in embryos were subjected to ANOVA. […] Differences were regarded as statistically significant where P values were less than 0.05.

[1] = Hb 1 μg/ml added 18 h post-insemination (1-cell)
[2] = Hb 1 μg/ml added 18 h post-insemination (1-cell), 104 oocytes
[3] = Hb 1 μg/ml added 60 h post-insemination (8-cell)
[4] = Hb 1 μg/ml added 60 h post-insemination (8-cell), 104 oocytes
[5] = Hb 1 μg/ml added 144 h post-insemination (Morula)
[6] = Hb 1 μg/ml added 144 h post-insemination (Morula), 103 oocytes

hemoglobin [Hb] was tested, and the “Ratio of blastocysts to morulae” value [1] was 0.74, the “No of embryos developed to the 2-cell” value [2] was 76 and the “No of embryos developed to the 8-cell” value [2] was 52. For the same substance, the “No of embryos developed to the 16-cell” value [2] was 45, the “No of embryos developed to the Morula” value [2] was 34 and the “No of embryos developed to the Blastocyst” value (from here on “No … to the Blastocyst”) [2] was 25. For the same substance, the “% of embryos developed to the 2-cell” value [1] was 73%, the “% of embryos developed to the 8-cell” value [1] was 50% and the “% of embryos developed to the 16-cell” value [1] was 43%. The “% of embryos developed to the Morula” value [1] was 33%, the “% of embryos developed to the Blastocyst” value [1] was 24% and the “Ratio of blastocysts to morulae” value [3] was 1.00. For the same substance, the “No of embryos developed to the 2-cell” value [4] was 67, the “No of embryos developed to the 8-cell” value [4] was 40 and the “No of embryos developed to the 16-cell” value [4] was 35. For the same substance, the “No of embryos developed to the Morula” value [4] was 30, the “No … to the Blastocyst” value [4] was 30 and the “% of embryos developed to the 2-cell” value [3] was 64%. For the same substance, the “% of embryos developed to the 8-cell” value [3] was 38%, the “% of embryos developed to the 16-cell” value [3] was 34% and the “% of embryos developed to the Morula” value [3] was 29%. The “% of embryos developed to the Blastocyst” value [3] was 29%, the “Ratio of blastocysts to morulae” value [5] was 0.96 and the “No of embryos developed to the 2-cell” value [6] was 64. The “No of embryos developed to the 8-cell” value [6] was 34, the “No of embryos developed to the 16-cell” value [6] was 28 and the “No of embryos developed to the Morula” value [6] was 23. For the same substance, the “No … to the Blastocyst” value [6] was 22 (22)^c,d, the “% of embryos developed to the 2-cell” value [5] was 62% and the “% of embryos developed to the 8-cell” value [5] was 33%. For the same substance, the “% of embryos developed to the 16-cell” value [5] was 27%, the “% of embryos developed to the Morula” value [5] was 22% and the “% of embryos developed to the Blastocyst” value [5] was 22 (22)^c,d %. The proportion of blastocysts (Hb 1 μg/ml added at 18 or 60 h post-insemination, controls 13%) was 24-29%.
